Among the data in ChEMBL document CHEMBL4052796, “Design, synthesis and biological evaluation of dual acetylcholinesterase and phosphodiesterase 5A inhibitors in treatment for Alzheimer's disease” (Bioorg Med Chem Lett, 2017) are Activity and IC50 values, retold here.

For series [1], the system named is A549. The series can be described thus: Cytotoxicity against human A549 cells at 50 ug/ml after 24 hrs by CCK-8 assay. The format is cell-based. Particulars: a549, 24 h.
The target of series [2] is cGMP-specific 3',5'-cyclic phosphodiesterase (Homo sapiens, UniProt O76074). The series can be described thus: Inhibition of human PDE5A preincubated for 30 mins followed by TMB substrate addition by spectrophotometry.
Series [3] addresses Acetylcholinesterase (Homo sapiens, UniProt P22303). Put plainly: Inhibition of AChE (unknown origin) using acetylthiocholine as substrate by Ellman's method. (In Ellman's method for cholinesterases, released thiocholine reacts with DTNB.)

Sequence of Acetylcholinesterase (P22303 whole entry): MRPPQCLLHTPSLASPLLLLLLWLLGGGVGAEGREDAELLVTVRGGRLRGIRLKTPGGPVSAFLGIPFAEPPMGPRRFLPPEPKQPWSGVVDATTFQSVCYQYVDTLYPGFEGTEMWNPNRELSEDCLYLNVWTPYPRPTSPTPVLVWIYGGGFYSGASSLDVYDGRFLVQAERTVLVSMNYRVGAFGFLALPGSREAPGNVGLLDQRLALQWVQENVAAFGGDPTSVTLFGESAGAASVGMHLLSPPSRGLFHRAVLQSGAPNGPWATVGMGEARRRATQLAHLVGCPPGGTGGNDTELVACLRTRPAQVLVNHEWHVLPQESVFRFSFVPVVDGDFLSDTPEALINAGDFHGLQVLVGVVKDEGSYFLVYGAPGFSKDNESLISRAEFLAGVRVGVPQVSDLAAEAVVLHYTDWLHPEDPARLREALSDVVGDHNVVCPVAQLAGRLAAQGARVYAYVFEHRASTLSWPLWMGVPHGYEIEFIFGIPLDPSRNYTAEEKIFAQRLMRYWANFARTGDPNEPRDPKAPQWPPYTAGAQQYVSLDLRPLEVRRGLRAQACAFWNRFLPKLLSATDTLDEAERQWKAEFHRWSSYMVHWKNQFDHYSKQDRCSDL

For orientation: IC50 means the concentration needed to halve the response being measured. A lower IC50 goes with higher potency. For `O=C1C(=O)N(C(=O)c2ccccc2)c2ccc(CN3CCCCC3)cc21`, the Activity result in series [1] is “Non-Toxic”. Besides, the IC50 in series [2] worked out at 50 µM; in series [3] it was 0.0794 µM. In the same order, the values of `Cc1ccc2c(c1)C(=O)C(=O)N2C(=O)N(C)C` are “Non-Toxic”, 100 µM and 0.144 µM. `Cc1ccc2c(c1)C(=O)C(=O)N2Cc1ccc(Br)cc1`: in series [3], 0.204 µM corresponded to half-maximal inhibition (IC50). `O=C1C(=O)N(C(=O)c2ccccc2)c2ccc(CNc3ccc(Br)cc3)cc21`: the IC50 in series [3] was 0.398 µM. For `Cc1ccc2c(c1)C(=O)C(=O)N2C(=O)c1ccccc1`, the IC50 in series [2] is 746 µM; in series [3] it was greater than 1 µM. For `O=C(O)CCC(=O)NCc1ccc2c(c1)CC(=O)N2C(=O)c1ccccc1`, the results for the 50% inhibitory concentration (IC50) in series [2] and in series [3] were 17.6 µM and greater than 1 µM, respectively. In the case of `O=C(Nc1ccc(CN2CCOCC2)cc1C(=O)C(=O)N1C(=O)CCC1=O)c1ccccc1`, the IC50 in series [3] was found to be 0.229 µM. For `CN1CCN(Cc2ccc3c(c2)C(=O)C(=O)N3C(=O)c2ccccc2)CC1`, the IC50 was greater than 1000 µM in series [2] and 0.0479 µM in series [3]. With `CCN(CC)Cc1ccc(NC(=O)c2ccccc2)c(C(=O)C(=O)N(CC)CC)c1`, the Activity result in series [1] was “Non-Toxic”. In addition, the IC50 in series [2] is 158 µM; in series [3], 0.0447 µM.

Turning to `O=C1C(=O)N(Cc2ccccc2[N+](=O)[O-])c2ccc(Br)cc21`, half-maximal inhibition in series [3] (IC50) was put at 0.263 µM. `COC(=O)C(=O)c1cc(C)ccc1NC(=O)c1ccccc1` gave an IC50 in series [3] greater than 1 µM. In the case of `Cc1ccc2c(c1)CC(=O)N2C(=O)c1ccccc1`, the IC50 in series [2] was 91.2 µM; in series [3] it was greater than 1 µM. As to `COc1ccc(NCc2ccc3c(c2)C(=O)C(=O)N3C(=O)c2ccccc2)cc1`, the half-inhibitory concentration (IC50) in series [2] is 100 µM; in series [3], 0.17 µM. With `Cc1ccc2c(c1)C(=O)C(=O)N2Cc1ccccc1[N+](=O)[O-]`, the IC50 in series [2] is 200 µM; in series [3], 0.2 µM. Regarding `O=C1C(=O)N(Cc2ccc(Br)cc2)c2ccc(Br)cc21`, the IC50 in series [2] came out at 131 µM; in series [3], 0.0891 µM.
